Biological target: human F508del-CFTR (Homo sapiens, UniProt P13569, DEL508-508)
Experiment: F508del-CFTR cell surface expression (corrector activity), DiscoveRx ß-galactosidase complementation chemiluminescence assay in recombinant U2OS cell line;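 also: U2OS cells co-expressing ProLink-tagged F508del-CFTR and a membrane-anchored enzyme acceptor, where more surface CFTR restores β-galactosidase activity measured by chemiluminescence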
Conditions: for EC50: EC50, F508del-CFTR cell surface expression; for Emax: U2OS
[1] = U2OS cells, 16h compound incubation, geomean values
[2] = in relation to Emax of corrector lumacaftor (=100%), arithmetic mean values
[3] = U2OS cell line, 16h compound incubation, geomean values
[4] = in relation to the Emax of the corrector lumacaftor (=100%), U2OS cell line, 16h compound incubation, arithmetic mean values
[5] = U2OS cells, 16h compound incubation, geomean of several measurements
[6] = in relation to the Emax of the corrector lumacaftor (=100%), U2OS cells, 16h compound incubation, arithmetic mean

human F508del-CFTR, sequence (P13569 with tags, fused parts or gaps DEL508-508): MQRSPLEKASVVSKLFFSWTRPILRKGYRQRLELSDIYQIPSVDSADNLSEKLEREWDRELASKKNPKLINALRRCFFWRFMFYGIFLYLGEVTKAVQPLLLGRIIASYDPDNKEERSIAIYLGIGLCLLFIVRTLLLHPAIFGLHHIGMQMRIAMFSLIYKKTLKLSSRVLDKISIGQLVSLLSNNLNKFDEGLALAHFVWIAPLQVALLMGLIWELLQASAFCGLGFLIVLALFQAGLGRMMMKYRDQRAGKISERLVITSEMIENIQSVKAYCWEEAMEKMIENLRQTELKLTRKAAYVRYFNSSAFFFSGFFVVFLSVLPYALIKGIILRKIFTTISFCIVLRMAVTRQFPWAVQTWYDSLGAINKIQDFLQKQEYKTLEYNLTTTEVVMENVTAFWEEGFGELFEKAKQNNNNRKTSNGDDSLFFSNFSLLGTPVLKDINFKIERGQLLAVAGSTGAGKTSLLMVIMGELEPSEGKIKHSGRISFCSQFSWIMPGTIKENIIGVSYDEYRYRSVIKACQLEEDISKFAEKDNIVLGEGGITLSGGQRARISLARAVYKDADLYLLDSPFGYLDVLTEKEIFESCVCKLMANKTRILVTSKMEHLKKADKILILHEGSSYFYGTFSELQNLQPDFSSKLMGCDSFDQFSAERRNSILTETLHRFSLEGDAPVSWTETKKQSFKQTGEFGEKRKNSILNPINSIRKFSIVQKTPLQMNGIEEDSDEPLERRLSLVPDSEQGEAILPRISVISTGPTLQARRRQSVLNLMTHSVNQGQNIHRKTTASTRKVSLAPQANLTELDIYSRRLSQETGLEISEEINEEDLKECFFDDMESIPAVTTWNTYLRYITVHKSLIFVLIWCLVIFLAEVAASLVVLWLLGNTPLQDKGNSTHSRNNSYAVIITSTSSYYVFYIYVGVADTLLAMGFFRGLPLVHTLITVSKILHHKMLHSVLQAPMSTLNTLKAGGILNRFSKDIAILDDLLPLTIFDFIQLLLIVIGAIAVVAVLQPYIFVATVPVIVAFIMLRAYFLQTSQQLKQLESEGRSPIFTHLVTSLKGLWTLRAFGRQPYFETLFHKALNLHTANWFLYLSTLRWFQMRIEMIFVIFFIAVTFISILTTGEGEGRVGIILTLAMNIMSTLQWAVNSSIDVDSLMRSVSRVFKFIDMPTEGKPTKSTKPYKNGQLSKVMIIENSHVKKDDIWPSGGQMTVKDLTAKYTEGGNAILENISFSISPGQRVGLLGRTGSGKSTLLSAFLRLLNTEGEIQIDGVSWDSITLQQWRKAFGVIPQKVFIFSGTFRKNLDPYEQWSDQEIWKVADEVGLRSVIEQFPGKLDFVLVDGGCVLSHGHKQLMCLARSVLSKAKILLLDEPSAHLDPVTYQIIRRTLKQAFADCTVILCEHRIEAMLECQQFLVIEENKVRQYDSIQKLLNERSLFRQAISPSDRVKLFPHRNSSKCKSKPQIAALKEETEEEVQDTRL

Cc1nc2ccc3c(c2o1)C(=O)N[C@H](C(=O)NCCc1cccc(C(C)(F)F)c1)CC(=O)N(C)[C@@H](CC(C)C)C(=O)N(CCC1CCCCC1)CC(=O)N[C@H](Cc1ccccc1)CO3 [Example 422, (8R,14S,18S)-8-benzyl-12-(2-cyclohexylethyl)-N-(3-(1,1-difluoroethyl)phenethyl)-14-isobutyl-2,15-dimethyl-10,13,16,20-tetraoxo-7,8,9,10,11,12,13,14,15,16,17,18,19,20-tetradecahydrooxazolo[4′,5′:5,6]benzo[1,2-p][1]oxa[4,7,10,14]tetraazacycloheptadecine-18-carboxamide]
EC50 [1]: 192 nM
Emax [2]: 193%

COc1cc2c(cn1)OC[C@@H](Cc1ccccc1)NC(=O)C1(CC1)N(C)C(=O)[C@H](CC(C)C)N(C)C(=O)C[C@@H](C(=O)NCCc1cc(C3CC3)no1)NC2=O [Example 648, (3′R,9′S,13′S)-3′-benzyl-N-(2-(3-cyclopropylisoxazol-5-yl)ethyl)-9′-isobutyl-17′-methoxy-7′,10′-dimethyl-5′,8′,11′,15′-tetraoxo-2′,3′,4′,5′,8′,9′,10′,11′,12′,13′,14′,15′-dodecahydro-7′H-spiro[cyclopropane-1,6′-pyrido[4,3-p][1]oxa[4,7,10,14]tetraazacycloheptadecine]-13′-carboxamide]
EC50 [1]: 748 nM
Emax [2]: 159%

COc1cccc(CCNC(=O)[C@@H]2CC(=O)N(C)[C@@H](CC(C)C)C(=O)N(C)C3(CC3)C(=O)N[C@H](Cc3ccccc3)COc3ccc4c(c3C(=O)N2)OCC4)c1 [Example 447, (8R,14S,18S)-8-benzyl-14-isobutyl-N-(3-methoxyphenethyl)-12,15-dimethyl-10,13,16,20-tetraoxo-2,3,7,8,9,10,13,14,15,16,17,18,19,20-tetradecahydro-12H-spiro[benzofuro[7,6-p][1]oxa[4,7,10,14]tetraazacycloheptadecine-11,1′-cyclopropane]-18-carboxamide]
EC50 [1]: 447 nM
Emax [2]: 220%

COc1cc2c(cc1OC)C(=O)N[C@H](C(=O)NCCc1ccc(C)cc1)CC(=O)N(C)[C@@H](CC(C)C)C(=O)N(C)CC(=O)N[C@H](Cc1ccccc1)CO2 [Example 192, (3R,9S,13S)-3-benzyl-9-isobutyl-17,18-dimethoxy-7,10-dimethyl-N-(4-methylphenethyl)-5,8,11,15-tetraoxo-2,3,4,5,6,7,8,9,10,11,12,13,14,15-tetradecahydrobenzo[p][1]oxa[4,7,10,14]tetraazacycloheptadecine-13-carboxamide]
EC50 [3]: 316 nM
Emax [4]: 107%

CC(C)C[C@H]1C(=O)N2CCOC[C@@H]2C(=O)N[C@H](Cc2ccccc2)COc2cnc3ccc(F)cc3c2C(=O)N[C@H](C(=O)NCCc2cc(C3CC3)on2)CC(=O)N1C [Example 643, (9S,13S,19aR,22R)-22-benzyl-N-(2-(5-cyclopropylisoxazol-3-yl)ethyl)-5-fluoro-13-isobutyl-12-methyl-7,11,14,20-tetraoxo-7,8,9,10,11,12,13,14,16,17,19,19a,20,21,22,23-hexadecahydro-[1,4]oxazino[3′,4′:6,7][1]oxa[4,7,10,14]tetraazacycloheptadecino[17,16-c]quinoline-9-carboxamide]
EC50 [1]: 220 nM
Emax [2]: 270%

CC(C)C[C@H]1C(=O)N2CCCC[C@@H]2C(=O)N[C@H](Cc2ccccc2)COc2cnc3ccccc3c2C(=O)N[C@H](C(=O)NCCc2ccc(F)c(F)c2)CC(=O)N1C [Example 75, (9S,13S,19aR,22R)-22-benzyl-N-(3,4-difluorophenethyl)-13-isobutyl-12-methyl-7,11,14,20-tetraoxo-7,8,9,10,11,12,13,14,17,18,19,19a,20,21,22,23-hexadecahydro-16H-pyrido[2′,1′:6,7][1]oxa[4,7,10,14]tetraazacycloheptadecino[17,16-c]quinoline-9-carboxamide]
EC50 [3]: 255 nM
Emax [4]: 191%

CC(C)C[C@H]1C(=O)N(C)C2(CC2)C(=O)N[C@H](Cc2ccccc2)COc2cnc3ccccc3c2C(=O)N[C@H](C(=O)NCCc2ccc(-n3nccn3)cc2)CC(=O)N1C [Example 454, (3′S,7′S,13′R)-N-(4-(2H-1,2,3-triazol-2-yl)phenethyl)-13′-benzyl-7′-isobutyl-6′,9′-dimethyl-1′,5′,8′,11′-tetraoxo-2′,3′,4′,5′,6′,7′,8′,9′,11′,12′,13′,14′-dodecahydro-1′H-spiro[cyclopropane-1,10′-[1]oxa[4,7,10,14]tetraazacycloheptadecino[17,16-c]quinoline]-3′-carboxamide]
EC50 [1]: 234 nM
Emax [2]: 236%

Cc1cc2ccc3c(c2o1)C(=O)N[C@H](C(=O)NCCc1nc(C2CC2)no1)CC(=O)N(C)[C@@H](CC(C)C)C(=O)N(C)C1(CC1)C(=O)N[C@H](Cc1ccccc1)CO3 [Example 554, (8R,14S,18S)-8-benzyl-N-(2-(3-cyclopropyl-1,2,4-oxadiazol-5-yl)ethyl)-14-isobutyl-2,12,15-trimethyl-10,13,16,20-tetraoxo-7,8,9,10,13,14,15,16,17,18,19,20-dodecahydro-12H-spiro[benzofuro[7,6-p][1]oxa[4,7,10,14]tetraazacycloheptadecine-11,1′-cyclopropane]-18-carboxamide]
EC50 [1]: 324 nM
Emax [2]: 310%

COc1noc(CCNC(=O)[C@@H]2CC(=O)N(C)[C@@H](CC(C)C)C(=O)N3CCCC[C@@H]3C(=O)N[C@H](Cc3ccccc3)COc3cc(C)c4ncccc4c3C(=O)N2)n1 [Example 920, (9S,13S,19aR,22R)-22-benzyl-13-isobutyl-N-(2-(3-methoxy-1,2,4-oxadiazol-5-yl)ethyl)-2,12-dimethyl-7,11,14,20-tetraoxo-7,8,9,10,11,12,13,14,17,18,19,19a,20,21,22,23-hexadecahydro-16H-pyrido[2′,1′:6,7][1]oxa[4,7,10,14]tetraazacycloheptadecino[16,17-f]quinoline-9-carboxamide]
EC50 [5]: 175 nM
Emax [6]: 380%

CC(C)C[C@H]1C(=O)N2CCCC[C@@H]2C(=O)N[C@H](Cc2ccccc2)COc2cnc3ccc(F)cc3c2C(=O)N[C@H](C(=O)NCCc2c(F)cccc2F)CC(=O)N1C [Example 636, (9S,13S,19aR,22R)-22-benzyl-N-(2,6-difluorophenethyl)-5-fluoro-13-isobutyl-12-methyl-7,11,14,20-tetraoxo-7,8,9,10,11,12,13,14,17,18,19,19a,20,21,22,23-hexadecahydro-16H-pyrido[2′,1′:6,7][1]oxa[4,7,10,14]tetraazacycloheptadecino[17,16-c]quinoline-9-carboxamide]
EC50 [1]: 91 nM
Emax [2]: 276%

COc1cccc(CCNC(=O)[C@@H]2CC(=O)N(C)[C@@H](CC(C)C)C(=O)N(CCC3CCCCC3)CC(=O)N[C@H](Cc3ccccc3)COc3ccc(OC)cc3C(=O)N2)c1 [Example 249, (3R,9S,13S)-3-benzyl-7-(2-cyclohexylethyl)-9-isobutyl-17-methoxy-N-(3-methoxyphenethyl)-10-methyl-5,8,11,15-tetraoxo-2,3,4,5,6,7,8,9,10,11,12,13,14,15-tetradecahydrobenzo[p][1]oxa[4,7,10,14]tetraazacycloheptadecine-13-carboxamide]
EC50 [3]: 116 nM
Emax [4]: 175%

COc1cc(CCNC(=O)[C@@H]2CC(=O)N(C)[C@@H](CC(C)C)C(=O)N(C)[C@H](Cc3nc(-c4ccc(F)cn4)no3)C(=O)N[C@H](Cc3ccccc3)COc3ccc4cnc(C)cc4c3C(=O)N2)on1 [Example 906, (3S,7S,10R,13R)-13-benzyl-10-((3-(5-fluoropyridin-2-yl)-1,2,4-oxadiazol-5-yl)methyl)-7-isobutyl-N-(2-(3-methoxyisoxazol-5-yl)ethyl)-6,9,20-trimethyl-1,5,8,11-tetraoxo-1,2,3,4,5,6,7,8,9,10,11,12,13,14-tetradecahydro-[1]oxa[4,7,10,14]tetraazacycloheptadecino[16,17-f]isoquinoline-3-carboxamide]
EC50 [5]: 294 nM
Emax [6]: 433%

CN1C(=O)C[C@@H](C(=O)NCCc2ccc3c(c2)OCO3)NC(=O)c2c(ccc3ccccc23)OC[C@@H](Cc2ccccc2)NC(=O)CN(CCC2CCCCC2)C(=O)[C@@H]1CC1CCCC1 (mixture of isomers) [Example 290, (3RS,7S,13R)-N-(2-(benzo[d][1,3]dioxol-5-yl)ethyl)-13-benzyl-9-(2-cyclohexylethyl)-7-(cyclopentylmethyl)-6-methyl-1,5,8,11-tetraoxo-1,2,3,4,5,6,7,8,9,10,11,12,13,14-tetradecahydronaphtho[1,2-p][1]oxa[4,7,10,14]tetraazacycloheptadecine-3-carboxamide]
EC50 [3]: 188 nM

COc1cccc(CCNC(=O)[C@@H]2CC(=O)N(C)[C@@H](CC(C)C)C(=O)N3CCN(S(=O)(=O)C4CCOCC4)C[C@@H]3C(=O)N[C@H](Cc3ccccc3)COc3ccc4ccccc4c3C(=O)N2)c1 [Example 734, (4aR,7R,18S,22S)-7-benzyl-22-isobutyl-N-(3-methoxyphenethyl)-21-methyl-5,16,20,23-tetraoxo-3-((tetrahydro-2H-pyran-4-yl)sulfonyl)-2,3,4,4a,5,6,7,8,16,17,18,19,20,21,22,23-hexadecahydro-1H-naphtho[1,2-p]pyrazino[2,1-f][1]oxa[4,7,10,14]tetraazacycloheptadecine-18-carboxamide]
EC50 [1]: 299 nM
Emax [2]: 325%

CC(C)C[C@H]1C(=O)N2CCCC[C@@H]2C(=O)N[C@H](Cc2ccccc2)COc2cccc(F)c2C(=O)N[C@H](C(=O)NCCc2ccc(-n3nccn3)cc2)CC(=O)N1C [Example 651, (7S,11S,20R,22aR)-N-(4-(2H-1,2,3-triazol-2-yl)phenethyl)-20-benzyl-14-fluoro-7-isobutyl-8-methyl-6,9,13,22-tetraoxo-1,3,4,6,7,8,9,10,11,12,13,19,20,21,22,22a-hexadecahydro-2H-benzo[p]pyrido[2,1-f][1]oxa[4,7,10,14]tetraazacycloheptadecine-11-carboxamide]
EC50 [1]: 375 nM
Emax [2]: 127%

Reference: patent US20240208992A1, “MACROCYCLES AS CFTR MODULATORS” (Idorsia Pharmaceuticals Ltd, priority 2021, published 2024)
